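Dose response: 5 concentrations. Exposure: 48 h. Format: 96-well plates. Endpoint: linear interpolation; highest concentration if not reached. Here, GI50 denotes the concentration required for 50% inhibition of growth.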 Activity calls are given as the source filed them. Rule as the data show it: active = GI50 up to about 1.1 µM and inactive = higher.
Key:
Assay in all cases: NCI tumour cell line growth inhibition, 48 h
[1] = system: SK-OV-3
[2] = system: MOLT-4
[3] = system: UO-31
[4] = system: K562
[5] = system: SNB-75
[6] = system: T47D
[7] = system: NCI-H23
[8] = system: A498
[9] = system: CCRF-CEM
[10] = system: SW-620
[11] = system: EKVX
[12] = system: M14
[13] = system: HCT-15
[14] = system: KM12
[15] = system: OVCAR-5
[16] = system: COLO 205
[17] = system: MCF7
[18] = system: SK-MEL-5
[19] = system: Hs-578T
[20] = system: SNB-19
[21] = system: CAKI-1
[22] = system: U-251
[23] = system: HOP-92
[24] = system: IGROV-1
[25] = system: OVCAR-4
[26] = system: OVCAR-3
[27] = system: SN12C
[28] = system: SF-539
[29] = system: UACC-62
[30] = system: SR
[31] = system: SK-MEL-28
[32] = system: BT-549
[33] = system: HT-29
[34] = system: ACHN
[35] = system: NCI-H522
[36] = system: HCT-116
[37] = system: HOP-62
[38] = system: NCI/ADR-RES
[39] = system: LOX IMVI
[40] = system: 786-0
[41] = system: HL-60
[42] = system: UACC-257
[43] = system: MDA-MB-435
[44] = system: RXF 393
[45] = system: A549
[46] = system: SK-MEL-2
[47] = system: NCI-H460
[48] = system: DU-145
[49] = system: NCI-H226
[50] = system: TK-10
[51] = system: RPMI-8226
[52] = system: SF-295
[53] = system: SF-268
[54] = system: MDA-MB-231
[55] = system: Malme-3M
[56] = system: OVCAR-8
[57] = system: MDA-N
[58] = system: HCC 2998
[59] = system: PC-3

In the case of `Cc1cc2c(cc1Cl)SC(NS(=O)(=O)c1ccc(Cl)cc1)=NS2(=O)=O`, the GI50 [1] is reported as > 100 µM (inactive), the GI50 [2] is reported as 16.9 µM (inactive) and the GI50 [3] is reported as > 100 µM (inactive). The GI50 [4] was 41.9 µM (inactive), the GI50 [5] was 35.2 µM (inactive) and the GI50 [6] was > 100 µM (inactive). The GI50 [7] was 30.5 µM (inactive), the GI50 [8] was 30.4 µM (inactive) and the GI50 [9] was 56.8 µM (inactive). The GI50 [10] was 41.6 µM (inactive), the GI50 [11] was 38.4 µM (inactive) and the GI50 [12] was 82.2 µM (inactive). The GI50 [13] was > 100 µM, the GI50 [14] was > 100 µM (inactive) and the GI50 [15] was 35.4 µM (inactive). For the same compound, the GI50 [16] was > 100 µM (inactive), the GI50 [17] was 56.8 µM (inactive) and the GI50 [18] was 46 µM (inactive). The GI50 [19] was 41.5 µM (inactive), the GI50 [20] was 65.6 µM (inactive) and the GI50 [21] was > 100 µM (inactive). For the same compound, the GI50 [22] was > 100 µM (inactive), the GI50 [23] was 16 µM (inactive) and the GI50 [24] was 89.5 µM (inactive). The GI50 [25] was 39.4 µM (inactive), the GI50 [26] was 19.3 µM (inactive) and the GI50 [27] was > 100 µM (inactive). For the same compound, the GI50 [28] was 18.3 µM (inactive), the GI50 [29] was > 100 µM (inactive) and the GI50 [30] was 10.3 µM (inactive). The GI50 [31] was > 100 µM (inactive), the GI50 [32] was 42.7 µM (inactive) and the GI50 [33] was 47.4 µM (inactive). The GI50 [34] was > 100 µM (inactive), the GI50 [35] was 21.7 µM (inactive) and the GI50 [36] was 35.4 µM (inactive). For the same compound, the GI50 [37] was 98.6 µM (inactive), the GI50 [38] was > 100 µM (inactive) and the GI50 [39] was 49.2 µM (inactive). The GI50 [40] was > 100 µM (inactive), the GI50 [41] was > 100 µM (inactive) and the GI50 [42] was 46.8 µM (inactive). The GI50 [43] was 91.6 µM (inactive), the GI50 [44] was 13.6 µM (inactive) and the GI50 [45] was > 100 µM (inactive). The GI50 [46] was 54 µM (inactive), the GI50 [47] was 79.8 µM (inactive) and the GI50 [48] was 83.9 µM (inactive). The GI50 [49] was 33.5 µM (inactive), the GI50 [50] was 30.3 µM (inactive) and the GI50 [51] was 57 µM (inactive). For the same compound, the GI50 [52] was 23 µM (inactive), the GI50 [53] was 85.9 µM (inactive) and the GI50 [54] was 67.6 µM (inactive).

In the case of `CC(=O)/N=C1/N(/C=C2\C(=O)Oc3ccccc3C2=O)C(=O)/C(=C/c2ccc(OC(C)=O)cc2)N1C`, the GI50 [1] is reported as > 100 µM (inactive), the GI50 [2] is reported as > 100 µM (inactive) and the GI50 [55] is reported as > 100 µM (inactive). The GI50 [4] was > 100 µM (inactive), the GI50 [56] was > 100 µM (inactive) and the GI50 [5] was 88.9 µM (inactive). The GI50 [6] was > 100 µM (inactive), the GI50 [7] was > 100 µM (inactive) and the GI50 [8] was 9.18 µM (inactive). For the same compound, the GI50 [9] was > 100 µM (inactive), the GI50 [10] was > 100 µM (inactive) and the GI50 [11] was > 100 µM (inactive). For the same compound, the GI50 [12] was > 100 µM (inactive), the GI50 [13] was > 100 µM and the GI50 [14] was > 100 µM (inactive). The GI50 [15] was > 100 µM (inactive), the GI50 [16] was > 100 µM (inactive) and the GI50 [17] was > 100 µM (inactive). The GI50 [18] was > 100 µM (inactive), the GI50 [19] was > 100 µM (inactive) and the GI50 [21] was > 100 µM (inactive). The GI50 [22] was > 100 µM (inactive), the GI50 [24] was > 100 µM (inactive) and the GI50 [25] was > 100 µM (inactive). For the same compound, the GI50 [26] was 83.4 µM (inactive), the GI50 [27] was > 100 µM (inactive) and the GI50 [28] was > 100 µM (inactive). For the same compound, the GI50 [29] was > 100 µM (inactive), the GI50 [30] was > 100 µM (inactive) and the GI50 [31] was > 100 µM (inactive). The GI50 [33] was > 100 µM (inactive), the GI50 [34] was > 100 µM (inactive) and the GI50 [35] was > 100 µM (inactive). For the same compound, the GI50 [36] was > 100 µM (inactive), the GI50 [37] was > 100 µM (inactive) and the GI50 [38] was > 100 µM (inactive). The GI50 [39] was > 100 µM (inactive), the GI50 [40] was > 100 µM (inactive) and the GI50 [41] was > 100 µM (inactive). For the same compound, the GI50 [42] was > 100 µM (inactive), the GI50 [57] was > 100 µM (inactive) and the GI50 [43] was > 100 µM (inactive). For the same compound, the GI50 [44] was > 100 µM (inactive), the GI50 [45] was > 100 µM (inactive) and the GI50 [46] was > 100 µM (inactive). For the same compound, the GI50 [58] was > 100 µM (inactive), the GI50 [47] was > 100 µM (inactive) and the GI50 [48] was > 100 µM (inactive). The GI50 [59] was > 100 µM (inactive), the GI50 [49] was > 100 µM (inactive) and the GI50 [51] was > 100 µM (inactive). The GI50 [52] was > 100 µM (inactive), the GI50 [53] was > 100 µM (inactive) and the GI50 [54] was > 100 µM (inactive).
